This note sets out measurements from US11083717B2, “Compositions and methods for drug sensitization of parasites” (The Texas A&M University System, priority 2015, dated 2021).

The test system of series [1] is Cryptosporidium parvum (CP). Description: Cell culture model of Cryptosporidium parvum infection in HCT-8 cells, real-time qRT-PCR. The series is classed as cell-based. The conditions noted are these: Cryptosporidium parvum. The procedure, abridged:
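HCT-8 monolayers were infected with C. parvum Iowa oocysts (1.5×10^4/well) for 3 h, then compounds were added after medium exchange and cells were incubated 41 h more (44 h total, 37 °C). Parasite Cp18S rRNA was measured by one-step SYBR qRT-PCR of lysates, normalized to host Hs18S, and % inhibition at the stated µM was derived from a standard curve.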
Background: In qPCR the cycle at which signal appears reflects the starting amount.

The test system of a further series is S. cerevisiae. Description: in vitro. To be noted: Saccharomyces cerevisiae.
For the next series, the system named is human fibroblast. The series is described as follows: in vitro. To be noted: human.
Series [2] deals with Human ether-a-go-go-related gene (hERG) (Homo sapiens, UniProt Q12809). Description: hERG test (potential cardiotoxicity). The series is classed as biochemical. The conditions noted are these: read-out: hERG (Abbvie).
Human ether-a-go-go-related gene (hERG), sequence (Q12809 whole entry): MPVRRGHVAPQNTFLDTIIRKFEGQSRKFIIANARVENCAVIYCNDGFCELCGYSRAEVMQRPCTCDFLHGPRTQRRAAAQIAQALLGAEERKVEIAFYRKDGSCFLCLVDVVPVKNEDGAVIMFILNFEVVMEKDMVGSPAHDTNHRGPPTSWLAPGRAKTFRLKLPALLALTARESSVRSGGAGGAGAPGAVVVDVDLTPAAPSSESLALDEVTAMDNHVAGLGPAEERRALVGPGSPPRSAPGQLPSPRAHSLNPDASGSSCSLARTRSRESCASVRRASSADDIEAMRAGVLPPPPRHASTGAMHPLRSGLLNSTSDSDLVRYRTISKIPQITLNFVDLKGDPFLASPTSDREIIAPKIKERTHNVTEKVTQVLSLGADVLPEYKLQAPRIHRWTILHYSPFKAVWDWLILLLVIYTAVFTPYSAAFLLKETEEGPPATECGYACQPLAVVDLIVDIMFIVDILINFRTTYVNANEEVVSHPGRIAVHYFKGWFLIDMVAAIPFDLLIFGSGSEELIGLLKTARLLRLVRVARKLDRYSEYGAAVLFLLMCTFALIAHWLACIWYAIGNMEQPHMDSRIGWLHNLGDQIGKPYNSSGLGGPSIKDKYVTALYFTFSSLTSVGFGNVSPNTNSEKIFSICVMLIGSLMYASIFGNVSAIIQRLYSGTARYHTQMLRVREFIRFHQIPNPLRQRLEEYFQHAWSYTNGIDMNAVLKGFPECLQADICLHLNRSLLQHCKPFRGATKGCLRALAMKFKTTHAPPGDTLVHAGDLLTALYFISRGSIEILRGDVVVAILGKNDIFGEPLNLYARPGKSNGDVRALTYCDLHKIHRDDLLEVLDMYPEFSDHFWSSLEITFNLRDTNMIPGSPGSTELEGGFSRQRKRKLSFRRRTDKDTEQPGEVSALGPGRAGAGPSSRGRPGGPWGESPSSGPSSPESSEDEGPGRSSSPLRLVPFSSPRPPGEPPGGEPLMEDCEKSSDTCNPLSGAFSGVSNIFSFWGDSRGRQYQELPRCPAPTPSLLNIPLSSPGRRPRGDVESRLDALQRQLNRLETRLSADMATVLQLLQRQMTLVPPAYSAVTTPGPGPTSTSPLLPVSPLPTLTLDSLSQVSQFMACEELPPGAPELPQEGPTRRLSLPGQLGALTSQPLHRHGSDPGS
The nature of series [3]: MCLint in vitro intrinsic clearance, mouse (MLM). In kind it is in vitro ADME.
Series [4] is described as follows: HCLint in vitro intrinsic clearance, human (HLM). In kind it is in vitro ADME.
A short description of a further series: Kinetic solubility. The series is classed as physicochemical.
The next series can be described thus: Plasma protein binding. The series is classed as in vitro ADME. The conditions noted are these: mouse, mice, read-out: PPB (converted).
The test system of a further series is Cryptosporidium parvum. The conditions noted are these: for Mouse Model (Mead) DPI7: @50 mg/kg, day 7 post infection. The method, then: The anticryptosporidial activity of the in vitro inhibitors was assessed in the IL-12 knockout mouse model that resembles the acute human disease (Ehigiator H N, Romagnoli P, Borgelt K, Fernandez M, McNair N, Secor W E, Mead J R. 2005. Mucosal cytokine and antigen-specific responses to Cryptosporidium parvum in IL-12p40 KO mice. Parasite Immunol. 27: 17-28; Campbell L D, Stewart J N, Mead J R. 2002. Susceptibility to Cryptosporidium parvum infections in cytokine- and chemokine-receptor knockout mice. J. Parasitol. 88:1014-1016). The protocol was approved by the Institutional Animal Care and Use Committees of Emory University, the AtlantaVAMedical Center, and Brandeis University. Mice (6 to 10 per group) were inoculated with 1,000 purified CP oocysts (Iowa isolate, from cattle). Treatment by gavage began 4 h postinfection with either vehicle (5% dimethyl sulfoxide (DMSO) in canola oil), 50-100 mg/kg compound, or 2,000 mg/kg paromomycin. Compounds were given for 7 days, and mice were sacrificed on day 8 (peak infection). Parasite load was quantified by fluorescence-activated cell sorting (FACS) assays for the presence of the oocysts in the feces at days 0, 4, and 7. Fecal pellets from individual mice were routinely collected daily and homogenized in adjusted volumes of 2.5% potassium dichromate. Samples were processed individually. Aliquots (200 ul) of vortexed samples were processed over microscale sucrose gradients as previously described (Arrowood M J, Hurd M R, Mead J R. 1995. A new method for evaluating experimental cryptosporidial parasite loads using immunofluorescent flowcytometry. J. Parasitol. 81:404-409). The oocyst-containing fraction was collected, washed, and treated with monoclonal antibody (OW5O-FITC) for 20 min. Samples were adjusted to 600 ul, and a portion (100 ul) was assayed with a 102-s sampling interval using logical gating of forward/side scatter and OW5O-FITC fluorescence signal on a Becton, Dickinson FACScan flow cytometer. Flow cytometry data were evaluated by analysis of variance (KaleidaGraph (Synergy Software, Reading Pa.); Microsoft Excel (Microsoft Corporation, Redmond, Wash.)).
NZ-366 (50 mg/kg) and NZ-369 (100 mg/kg) were administered via gavage in a single daily dose to IL-12 knockout mice that were infected with 1,000 CP oocysts. Additional control groups included those treated with single daily doses of vehicle, and paromomycin (Prm) (2,000 mg/kg), by oral gavage.

For the next series, the target named is hERG (Homo sapiens, UniProt Q12809). The series is described as follows: hERG test (potential cardiotoxicity). In kind it is biochemical. The conditions noted are these: human; read-out: hERG (Abbvie). (In general: The hERG channel carries a current that helps repolarise heart muscle cells.)
hERG, sequence (Q12809 whole entry): as above
[5] abbreviates: 44 h, CP in HCT-8 cells, 44 h infection, 50% reduction of parasite growth vs control, NA: not active, read-out: MIC50.
Where [6] appears, read: NZ-366 50 mg/kg, NZ-369 100 mg/kg, paromomycin 2,000 mg/kg.

Converted amounts (≈) assume the structure as drawn. Like-named read-outs stand apart in the source and are kept apart here. Where only a bound is given, the exact number is not on record here.

As to `CC(C(=O)N1CCN(C)CC1)c1ccc(Oc2nc3ccc(Cl)cc3s2)cc1` (stereo not drawn) [NZ-366, 2-{4-[(6-chloro-1,3-benzothiazol-2-yl)oxy]phenyl}-1-(4-methylpiperazin-1-yl)propan-1-one], the MIC50 in series [1] (setting [5]) and in series [1] (read-out: MIC50 (nM) (CP)) was 50 nM (≈ 0.0208 µg/mL) in each case. The IC50 in “in vitro” (Saccharomyces cerevisiae) amounted to 80 µM; in “in vitro” (human), 48 µM; in series [2], 2.4 µM. In addition, in the series with S. cerevisiae, the “concentrations at which not toxic, S. cerevisiae cytotoxicity testing” value fell in the range of 25 to 50 µM. In the series on human fibroblast, the “concentrations at which not toxic, human fibroblast cytotoxicity testing” value was 25 to 50 µM. In addition, the “MCLint (mL/min/g liver), MLM” value in series [3] was “MLM = 41 mL/min/g liver”. The “HCLint (mL/min/g liver), HLM” value in [4] is “HLM = 7.9 mL/min/g liver”. Besides, the “Kinetic Sol.” value in “Kinetic solubility” was 62 µM. In “Plasma protein binding”, the fraction unbound was 0.019. For the same molecule, the “Mouse Model (Mead) DPI7” value in the series with Cryptosporidium parvum is “DPI7 = 59%”. The “overt toxicity in the treated infected mice” value in the series on Cryptosporidium parvum (NZ-366 50 mg/kg, NZ-369 100 mg/kg, 7 days) is on record as “no overt toxicity”. The “anticryptosporidial activity, fecal oocysts day 7 post infection” value in the series with Cryptosporidium parvum (NZ-366 50 mg/kg, NZ-369 100 mg/kg, gavage, single daily dose, FIG. 1) is “have anticryptosporidial activity”. Besides, in the series with Cryptosporidium parvum (setting [6]), the “effectiveness compared with paromomycin after a single dose” value is on record as “more effective than paromomycin”. In the series on Cryptosporidium parvum (setting [6]), the “effectiveness compared with paromomycin over the course of the study” value was “equally as effective as paromomycin”.
`CC(C)NC(=O)C(C)c1ccc(Oc2nc3ccc(Cl)cc3s2)cc1` (stereo not drawn) [NZ-327, 2-{4-[(6-chloro-1,3-benzothiazol-2-yl)oxy]phenyl}-N-(propan-2-yl)propanamide]: the MIC50 in series [1] (setting [5]) and in [1] (read-out: MIC50 (nM) (CP)) was 7 to 22 nM (≈ 0.00262 to 0.00825 µg/mL) each time. Also, the IC50 in “in vitro” (Saccharomyces cerevisiae) and in the series “in vitro” (human) was more than 100 µM in each case. Further, in the series with S. cerevisiae, the “concentrations at which not toxic, S. cerevisiae cytotoxicity testing” value is not below 100 µM. Further, the “concentrations at which not toxic, human fibroblast cytotoxicity testing” value with human fibroblast was not below 100 µM. The “MCLint (mL/min/g liver), MLM” value in series [3] was “MLM = 3.7 mL/min/g liver”. Also, the “HCLint (mL/min/g liver), HLM” value in series [4] is “HLM = 1.3 mL/min/g liver”. Moreover, the “Kinetic Sol.” value in “Kinetic solubility” is 33 µM. Moreover, the fraction unbound in the series “Plasma protein binding” was 0.016.
As for `CC(C(=O)N1CCOCC1)c1ccc(Oc2nc3ccc(Cl)cc3s2)cc1` (stereo not drawn) [NZ-365, 2-{4-[(6-chloro-1,3-benzothiazol-2-yl)oxy]phenyl}-1-(morpholin-4-yl)propan-1-one], the MIC50 in [1] (setting [5]) and in series [1] (read-out: MIC50 (nM) (CP)) was 25 nM (≈ 0.0101 µg/mL) throughout. The values for the IC50 (in the series “in vitro” (Saccharomyces cerevisiae); in “in vitro” (human); in [2]) were more than 100 µM, more than 100 µM and 12 µM, respectively. The “concentrations at which not toxic, S. cerevisiae cytotoxicity testing” value in the series with S. cerevisiae lay in the range of 50 to 100 µM. Moreover, the “concentrations at which not toxic, human fibroblast cytotoxicity testing” value in the series with human fibroblast is not below 100 µM. Besides, the “MCLint (mL/min/g liver), MLM” value in [3] is on record as “MLM = 10 mL/min/g liver”. In addition, the “HCLint (mL/min/g liver), HLM” value in [4] is reported as “HLM = 4.8 mL/min/g liver”. In addition, the “Kinetic Sol.” value in “Kinetic solubility” amounted to 28 µM.
Turning to `CC(C(=O)NCCN(C)C)c1ccc(Oc2nc3ccc(Cl)cc3s2)cc1` (stereo not drawn) [NZ-516, 2-{4-[(6-chloro-1,3-benzothiazol-2-yl)oxy]phenyl}-N-[2-(dimethylamino)ethyl]propanamide], the MIC50 in [1] (setting [5]) and in series [1] (read-out: MIC50 (nM) (CP)) was 16 nM (≈ 0.00646 µg/mL) in each case. The IC50 in the series “in vitro” (Saccharomyces cerevisiae) is more than 100 µM; in the series “in vitro” (human) it was 5.6 µM; in series [2], 2.7 µM. Besides, the “concentrations at which not toxic, S. cerevisiae cytotoxicity testing” value with S. cerevisiae is not below 100 µM. In the series on human fibroblast, the “concentrations at which not toxic, human fibroblast cytotoxicity testing” value was not below 100 µM. In addition, the “MCLint (mL/min/g liver), MLM” value in series [3] was “MLM = 4.1 mL/min/g liver”. The “HCLint (mL/min/g liver), HLM” value in [4] is reported as “HLM = 0.54 mL/min/g liver”. Besides, the “Kinetic Sol.” value in the series “Kinetic solubility” was found to be 100 µM. Moreover, the “Mouse Model (Mead) DPI7” value in the series on Cryptosporidium parvum is “DPI7 = 94%”. Besides, the “effectiveness in the same type of test (IL-12 knockout mouse model)” value with Cryptosporidium parvum (mouse, in vivo) is given as “effective”.
`CC(C(=O)N1CCS(=O)(=O)CC1)c1ccc(Oc2nc3ccc(Cl)cc3s2)cc1` (stereo not drawn) [NZ-553, 4-(2-{4-[(6-chloro-1,3-benzothiazol-2-yl)oxy]phenyl}propanoyl)-1λ^6,4-thiomorpholine-1,1-dione]: the MIC50 in series [1] (setting [5]) and in [1] (read-out: MIC50 (nM) (CP)) was 2 nM (≈ 0.000902 µg/mL) each time. Further, the values for the IC50 (in the series “in vitro” (Saccharomyces cerevisiae); in the series “in vitro” (human); in series [2]) were more than 100 µM, 40 µM and 11 µM, respectively. The “MCLint (mL/min/g liver), MLM” value in [3] is listed as “MLM = 1.28 mL/min/g liver”. In series [4], the “HCLint (mL/min/g liver), HLM” value was “HLM = 0.87 mL/min/g liver”. For the same molecule, in “Kinetic solubility”, the “Kinetic Sol.” value was determined as 100 µM. In addition, in “Plasma protein binding”, the fraction unbound was 0.01.
In the case of `CC(C(=O)NCCO)c1ccc(Oc2nc3ccc(Cl)cc3s2)cc1` (stereo not drawn) [NZ-370, 2-{4-[(6-chloro-1,3-benzothiazol-2-yl)oxy]phenyl}-N-(2-hydroxyethyl)propanamide], the MIC50 in [1] (setting [5]) and in [1] (read-out: MIC50 (nM) (CP)) was 50 to 60 nM (≈ 0.0188 to 0.0226 µg/mL) throughout. The values for the IC50 in the series “in vitro” (Saccharomyces cerevisiae), in “in vitro” (human) and at hERG were more than 100 µM, more than 100 µM and 30 µM, respectively. For the same molecule, the “concentrations at which not toxic, S. cerevisiae cytotoxicity testing” value in the series on S. cerevisiae is not below 100 µM. For the same molecule, in the series on human fibroblast, the “concentrations at which not toxic, human fibroblast cytotoxicity testing” value was not below 100 µM. For the same molecule, the “Kinetic Sol.” value in “Kinetic solubility” came out at 40 µM.
Consider `CC(C(=O)NC1CC1)c1ccc(Oc2nc3ccc(Cl)cc3s2)cc1` (stereo not drawn) [NZ-538, 2-{4-[(6-chloro-1,3-benzothiazol-2-yl)oxy]phenyl}-N-cyclopropylpropanamide], for which the MIC50 in [1] (setting [5]) and in series [1] (read-out: MIC50 (nM) (CP)) was 54 nM (≈ 0.0201 µg/mL) throughout. Also, the IC50 in the series “in vitro” (Saccharomyces cerevisiae) is more than 100 µM; in the series “in vitro” (human), more than 100 µM; in [2], 7.3 µM. For the same molecule, the “MCLint (mL/min/g liver), MLM” value in series [3] is on record as “MLM = 3.9 mL/min/g liver”. Further, the “HCLint (mL/min/g liver), HLM” value in series [4] is given as “HLM = 0.7 mL/min/g liver”.
